In ChEMBL document CHEMBL4428037 (J Med Chem, 2016):
Active and inactive are the calls of the source. The calls are words filed in the database; no cut-off is given here.

How the values were obtained:
[1] = biological target: T1, Tubulin alpha (Homo sapiens) (UniProt P0DPH7+P68366+Q71U36+P68363+Q9BQE3+Q6PEY2+A6NHL2+Q9NY65); test: Inhibition of alpha tubulin polymerization in human A549 cells assessed as induction of microtubule network dis-organization at 40 nM by Immunofluorescent staining based fluorescence microscopy; format: cell-based
[2] = biological target: T1, Tubulin alpha (Homo sapiens); test: Inhibition of alpha tubulin polymerization in human A549 cells assessed as induction of cell border shrinkage of microtubules at 40 nM by Immunofluorescent staining based fluorescence microscopy
[3] = Toxicity in human NSCLC xenografted Balb/c-nu mouse assessed as effect on body weight at 12.5 mg/kg, ip dosed every day for 21 consecutive days; format: organism-based; conditions: in vivo
[4] = system: A549; test: Induction of apoptosis in human A549 cells assessed as early apoptotic cells level at 20 nM incubated for 24 hrs by Annexin V-FITC/PI staining based FACS flow cytometry (reference value: 0.65%); format: functional
[5] = Toxicity in human NSCLC xenografted Balb/c-nu mouse assessed as induction of adverse effects at 12.5 mg/kg, ip dosed every day for 21 consecutive days; format: organism-based; conditions: in vivo
[6] = system: A549; test: Induction of apoptosis in human A549 cells assessed as necrotic cells level at 20 nM incubated for 24 hrs by Annexin V-FITC/PI staining based FACS flow cytometry (reference value: 0.37%); format: functional
[7] = system: Non-small cell lung cancer cell line; test: Antitumor activity against human NSCLC xenografted in Balb/c-nu mouse assessed as induction of delay in tumor volume increase at 12.5 mg/kg, ip dosed every day for 21 consecutive days and measured every 3 days; format: functional, organism-based
[8] = system: Non-small cell lung cancer cell line; test: Antitumor activity against human NSCLC xenografted in Balb/c-nu mouse assessed as inhibition of tumor growth at 12.5 mg/kg, ip dosed every day for 21 consecutive days and measured every 3 days; format: functional; conditions: 72 h, read-out: TGI
[9] = system: NCI-H460; test: Inhibition of colony formation in human NCI-H460 cells at 10 nM incubated for 9 days by crystal violet staining based assay; format: functional; conditions: NCI-H460, 216 h
[10] = Toxicity in human NSCLC xenografted Balb/c-nu mouse assessed as effect on body weight at 50 mg/kg, ip dosed every day for 21 consecutive days; format: organism-based; conditions: in vivo
[11] = system: A549; test: Induction of apoptosis in human A549 cells assessed as live cells level at 40 nM incubated for 24 hrs by Annexin V-FITC/PI staining based FACS flow cytometry (reference value: 96.83%); format: functional
[12] = system: A549; test: Induction of apoptosis in human A549 cells assessed as increase in cleaved caspase-3 level incubated for 24 hrs by Western blotting; format: functional, cell-based
[13] = system: A549; test: Induction of apoptosis in human A549 cells assessed as early apoptotic cells level at 10 nM incubated for 24 hrs by Annexin V-FITC/PI staining based FACS flow cytometry (reference value: 0.65%); format: functional
[14] = system: A549; test: Induction of apoptosis in human A549 cells assessed as necrotic cells level at 40 nM incubated for 24 hrs by Annexin V-FITC/PI staining based FACS flow cytometry (reference value: 0.37%); format: functional
[15] = system: Non-small cell lung cancer cell line; test: Antitumor activity against human NSCLC xenografted in Balb/c-nu mouse assessed as inhibition of tumor growth at 50 mg/kg, ip dosed every day for 21 consecutive days and measured every 3 days; format: functional; conditions: 72 h, read-out: TGI
[16] = system: HeLa; test: Growth inhibition of human HeLa cells incubated for 72 hrs by MTT assay; format: functional, cell-based
[17] = system: PC-3; test: Growth inhibition of human PC3 cells incubated for 72 hrs by MTT assay; format: functional, cell-based; conditions: PC-3, 72 h
[18] = system: A549; test: Induction of apoptosis in human A549 cells assessed as induction of nucleus fragmentation at 40 nM incubated for 24 hrs microscopy; format: functional, cell-based
[19] = system: Non-small cell lung cancer cell line; test: Antitumor activity against human NSCLC xenografted in Balb/c-nu mouse assessed as induction of delay in tumor volume increase at 50 mg/kg, ip dosed every day for 21 consecutive days and measured every 3 days; format: functional, organism-based
[20] = biological target: Tubulin (Sus scrofa) (UniProt P02554+P02550); test: Displacement of [3H]colchicine from biotinylated porcine tubulin at 5 uM incubated for 2 hrs by competition scintillation proximity; format: protein assay
[21] = system: A549; test: Induction of cell cycle arrest in human A549 cells assessed as accumulation at G2/M phase at 40 nM incubated for 24 hrs by propidium iodide staining based FACS flow cytometry; format: functional
[22] = system: A549; test: Induction of apoptosis in human A549 cells assessed as late apoptotic cells level at 40 nM incubated for 24 hrs by Annexin V-FITC/PI staining based FACS flow cytometry (reference value: 2.15%); format: functional
[23] = system: A549; test: Cytotoxicity against human A549 cells assessed as reduction in cell viability at 5 nM to 80 nM incubated for 24 hrs by trypan blue staining assay; format: cell-based; conditions: a549, 24 h, 0.005 µM
[24] = system: A549; test: Inhibition of colony formation in human A549 cells at 10 nM incubated for 9 days by crystal violet staining based assay; format: functional; conditions: A549, 216 h
[25] = system: A549; test: Induction of apoptosis in human A549 cells assessed as late apoptotic cells level at 10 nM incubated for 24 hrs by Annexin V-FITC/PI staining based FACS flow cytometry (reference value: 2.15%); format: functional
[26] = system: HUVEC; test: Inhibition of capillary tube formation in HUVEC assessed as reduction in tube-like structures formation at 40 nM incubated for 8 hrs by fluorescence microscopy based 3D-matrigel assay; format: functional; conditions: Homo sapiens
[27] = system: HepG2; test: Growth inhibition of human HepG2 cells incubated for 72 hrs by MTT assay; format: functional, cell-based; conditions: HepG2, 72 h
[28] = Toxicity in human NSCLC xenografted Balb/c-nu mouse assessed as induction of adverse effects at 50 mg/kg, ip dosed every day for 21 consecutive days; format: organism-based; conditions: in vivo
[29] = system: A549; test: Induction of apoptosis in human A549 cells assessed as necrotic cells level at 10 nM incubated for 24 hrs by Annexin V-FITC/PI staining based FACS flow cytometry (reference value: 0.37%); format: functional
[30] = system: A549; test: Growth inhibition of human A549 cells incubated for 48 hrs by MTT assay; format: functional, cell-based; conditions: A549, 48 h
[31] = system: HUVEC; test: Inhibition of capillary tube formation in HUVEC assessed as reduction in tube-like structures formation incubated for 8 hrs by fluorescence microscopy based 3D-matrigel assay; format: functional, cell-based; conditions: Homo sapiens
[32] = system: A549; test: Induction of apoptosis in human A549 cells assessed as induction of cytoplasmic membrane blebbing at 40 nM incubated for 24 hrs microscopy; format: functional, cell-based
[33] = system: A549; test: Increase in cyclin B1 expression in human A549 cells incubated for 24 hrs by Western blotting; format: functional, cell-based
[34] = system: A549; test: Induction of apoptosis in human A549 cells assessed as induction of chromatin condensation at 40 nM incubated for 24 hrs microscopy; format: functional, cell-based
[35] = system: HUVEC; test: Inhibition of capillary tube formation in HUVEC assessed as reduction in tube-like structures formation at 20 nM incubated for 8 hrs by fluorescence microscopy based 3D-matrigel assay; format: functional; conditions: Homo sapiens
[36] = system: A549; test: Inhibition of colony formation in human A549 cells incubated for 9 days by crystal violet staining based assay; format: functional, cell-based
[37] = system: A549; test: Induction of apoptosis in human A549 cells assessed as late apoptotic cells level at 20 nM incubated for 24 hrs by Annexin V-FITC/PI staining based FACS flow cytometry (reference value: 2.15%); format: functional

## CCOc1cccc(Nc2nn(C)c3c2Cc2cc(OCC)c(OCC(N)=O)cc2-3)c1
[1]
  inhibition: Active
[2]
  inhibition: Active
[3]
  Activity: Non-Toxic
[4]
  Activity: 3.78%
[5]
  Activity: Non-Toxic
[6]
  Activity: 0.84%
[7]
  Activity: Active
[8]
  inhibition in vivo at 12.5 mg/kg: 33.8%
[9]
  inhibition at 0.01 µM: 97.3%
[10]
  Activity: Non-Toxic
[11]
  Activity: 84.24%
[12]
  Activity: Dose-dependent effect
[13]
  Activity: 1.01%
[14]
  Activity: 1.23%
[15]
  inhibition in vivo at 50 mg/kg: 59.1%
[16]
  IC50: 7.4 nM
[17]
  IC50: 19 nM
[18]
  Activity: Active
[19]
  Activity: Active
[20]
  inhibition: 67%
[21]
  Activity: 68.1%
[22]
  Activity: 5.47%
[23]
  Activity: Non-Toxic
[24]
  inhibition at 0.01 µM: 91%
[25]
  Activity: 2.7%
[26]
  inhibition at 0.04 µM: 69%
[27]
  IC50: 26 nM
[28]
  Activity: Non-Toxic
[29]
  Activity: 0.62%
[30]
  IC50: 41.5 nM
[31]
  inhibition: Dose-dependent effect
[32]
  Activity: Active
[33]
  Activity: Dose-dependent effect
[34]
  Activity: Active
[35]
  inhibition at 0.02 µM: 58%
[36]
  inhibition: Dose-dependent effect
[37]
  Activity: 4.57%
